{"source": "paper PMC5338256", "about": "“D-form KLKLLLLLKLK-NH2 peptide exerts higher antimicrobial properties than its L-form counterpart via an association with bacterial cell wall components” (Scientific Reports, 2017)", "key": {"S. aureus [1]": {"system": "S. aureus", "format": "cell-based, Staphylococcus aureus (NBRC100910)", "procedure": "(§1) S. aureus (NBRC100910), E. coli W3110 (NBRC12713), E. hirae (NBRC3181), C. albicans (NBRC1385), and S. Typhimurium 14028s (ATCC14028)[2] were used in this study. S. aureus, E. coli, and S. Typhimurium were grown at 37 °C with aeration in Muller-Hinton II medium (BD Biosciences). E. hirae was grown at 37 °C in LB medium (Nacalai Tesque, Inc.) containing 0.5% glucose (w/v). C. albicans was grown at room temperature with aeration in YM medium (BD Biosciences). All experiments were conducted using bacterial cells and C. albicans in the logarithmic-phase of growth.\n(§2) Bacterial suspensions in Muller-Hinton II medium were adjusted to an optical density of 550 nm (OD550) = 0.0011. C. albicans suspensions in YM medium were adjusted to OD650 = 0.033. Peptides were serially diluted in 10 mM phosphate buffer (pH 6.0) containing 130 mM sodium chloride, 0.2% bovine serum albumin, and 2.56% dimethyl sulfoxide. The peptide solution (100 μl) was mixed with 100 μl of bacteria or C. albicans suspensions. Bacterial cultures were incubated for one day at 37 °C. C. albicans cultures were incubated for two days at room temperature. Cell growth was monitored optically and the MIC was determined."}, "Staphylococcus aureus": {"system": "Staphylococcus aureus", "conditions": "cited from earlier work", "from_the_text": "We determined minimum inhibitory concentrations (MICs) of other ant ..."}, "E. coli [2]": {"system": "E. coli", "experiment": "Assay for antimicrobial activity (10 min exposure, CFU)", "format": "cell-based, Escherichia coli W3110 (NBRC12713)", "conditions": "10 min at 37 °C, triplicate plates", "procedure": "as §1\n(§3) Bacteria and C. albicans were suspended in growth medium. Peptides suspended in dimethyl sulfoxide were serially diluted in 10 mM phosphate buffer (pH 6.0) containing 130 mM sodium chloride, 0.2% bovine serum albumin as described previously. In order to examine the effects of bovine serum albumin on the assay, 10 mM phosphate buffer (pH 6.0) containing 130 mM sodium chloride, was used for the dilution of peptides. […] The inhibitory effects of the bacterial components were analyzed by incubating 450 μl of S. aureus suspension with 500 μl of peptide solution plus 50 μl of inhibitor samples at 37 °C for 10 min. […] After cultivation of the plates, colony forming units (CFU) in the peptide/bacteria suspension were calculated based on the average of triplicate plates."}, "[3]": {"conditions": "cited from earlier work"}, "S. aureus [4]": {"system": "S. aureus", "experiment": "Inhibition of antimicrobial activity by bacterial cell wall components", "format": "cell-based, Staphylococcus aureus", "conditions": "D-form 1.9 μg/ml, L-form 7.5 μg/ml, 10 min", "procedure": "Bacteria and C. albicans were suspended in growth medium. Peptides suspended in dimethyl sulfoxide were serially diluted in 10 mM phosphate buffer (pH 6.0) containing 130 mM sodium chloride, 0.2% bovine serum albumin as described previously. In order to examine the effects of bovine serum albumin on the assay, 10 mM phosphate buffer (pH 6.0) containing 130 mM sodium chloride, was used for the dilution of peptides. Peptide solution (500 μl) was added to 500 μl of bacteria suspensions and then the mixture was incubated at 37 °C for 10 min. In order to examine the effects of culture medium components on the assay, bacteria suspension was prepared with 10 mM phosphate buffer (pH 6.0) containing 130 mM sodium chloride. Alternatively, 500 μl of peptide solution was added to 500 μl of C. albicans suspensions and the mixture was incubated at room temperature for 10 min. The inhibitory effects of the bacterial components were analyzed by incubating 450 μl of S. aureus suspension with 500 μl of peptide solution plus 50 μl of inhibitor samples at 37 °C for 10 min. Then, the peptide/bacteria suspensions were diluted and plated onto LB agar, LB agar containing 0.5% glucose, or YM agar. After cultivation of the plates, colony forming units (CFU) in the peptide/bacteria suspension were calculated based on the average of triplicate plates.\nPeptidoglycan (120 μg) prepared from S. aureus was added to 1 mg/ml of lysozyme in phosphate buffered saline (150 μl)[33]. Peptidoglycan without lysozyme and lysozyme without peptidoglycan were also prepared as controls. Samples were incubated overnight at 37 °C, and then incubated at 100 °C for 15 min to inactivate lysozyme. For heat-inactivation of peptidoglycan, 600 μg of peptidoglycan suspended in water (300 μl) was incubated at 100 °C for 15 min. The samples were sonicated for 10 sec at setting 1 using a Branson sonifier model S-150D. These samples were used as inhibitor samples for antimicrobial activity assays."}, "S. aureus [5]": {"system": "S. aureus", "experiment": "Assay for membrane permeability (ethidium influx)", "format": "cell-based, Staphylococcus aureus", "conditions": "20 μg/ml peptide, fluorescence for 180 sec, 10 mM phosphate buffer pH 6.0, 130 mM NaCl, 0.2% BSA", "procedure": "To examine membrane permeability, ethidium influx rates were examined as previously described. S. aureus suspension cultures were adjusted to an OD600 of 0.4 in 10 mM phosphate buffer (pH 6.0) containing 130 mM sodium chloride and 0.2% bovine serum albumin. Then, peptide in dimethyl sulfoxide (8 μl) or dimethyl sulfoxide alone (8 μl) was added to 2 ml of S. aureus suspensions. At 30 sec after the addition of peptide, ethidium bromide was added to a final concentration of 5 μg/ml, and fluorescence of the ethidium-nucleic acid complex was monitored using a RF-5300PC spectrofluorometer (Shimadzu). Excitation and emission wavelengths were 545 nm with 5 nm slits and 600 nm with 10 nm slits, respectively."}, "S. aureus peptidoglycan": {"system": "S. aureus peptidoglycan", "experiment": "Peptidoglycan-binding assay", "parameters": "species or system Staphylococcus aureus", "conditions": "biotin-labeled peptides on immobilized peptidoglycan; 37 °C, 2 h; avidin-labeled peroxidase, absorbance 450 nm; triplicate assays", "procedure": "Peptidoglycan-binding assays were performed as previously described with some modifications. Peptidoglycan from S. aureus (100 μg/ml) was suspended in 0.2% trifluoroacetic acid and sonicated twice for 10 sec at setting 1 using a Branson sonifier model S-150D. The peptidoglycan suspension (50 μl) was used to coat the wells of a flat bottom 96-well microplate (Thermo Fisher Scientific). The plate was incubated at room temperature until the water evaporated. The plate was placed at 60 °C for 1 h to dry out completely, and then blocked with 200 μl of 5 mg/ml bovine serum albumin in binding buffer (10 mM phosphate buffer (pH 6.0) containing 130 mM sodium chloride, 0.05% Tween 20, and 0.01% trifluoroacetic acid) at 37 °C for 2 h. The plate was washed four times with 200 μl of binding buffer. Biotin-labeled peptides in 100 μl of binding buffer containing 0.5% dimethyl sulfoxide were added to the wells and incubated at 37 °C for 2 h. Detection of biotin-labeled peptides was performed using Vectastain ABC reagent (Vector Laboratories) according to manufacturer’s instructions. The wells were washed four times with binding buffer, then 100 μl of avidin-labeled peroxidase was added to each well, and the plate was incubated at 37 °C for 1 h. The wells were washed again as described above. […] Absorbance was measured at 450 nm."}, "E. coli [6]": {"system": "E. coli", "format": "cell-based, Escherichia coli W3110 (NBRC12713)", "conditions": "pH 6", "procedure": "as §1, §2"}, "S. Typhimurium": {"system": "S. Typhimurium", "experiment": "Assay for antimicrobial activity (10 min exposure, CFU)", "format": "cell-based, Salmonella enterica serovar Typhimurium 14028s", "conditions": "10 min at 37 °C, triplicate plates", "procedure": "as §1, §3"}, "C. albicans": {"system": "C. albicans", "format": "cell-based, Candida albicans (NBRC1385)", "procedure": "as §1, §2"}}, "note": "Non-standard residues stand in square brackets, D forms with d. Residues, ends and D or L forms follow the SMILES beside them.", "data": [{"compound": "CC(C)C[C@@H](NC(=O)[C@H](N)CCCCN)C(=O)N[C@H](CCCCN)C(=O)N[C@H](CC(C)C)C(=O)N[C@H](CC(C)C)C(=O)N[C@H](CC(C)C)C(=O)N[C@H](CC(C)C)C(=O)N[C@H](CC(C)C)C(=O)N[C@H](CCCCN)C(=O)N[C@H](CC(C)C)C(=O)N[C@H](CCCCN)C(N)=O", "note": "[D-form KLKLLLLLKLK-NH2] (H-[dK][dL][dK][dL][dL][dL][dL][dL][dK][dL][dK]-NH2; N-terminus assumed)", "values": [{"measurement": "fold by which the MIC of the D-form is lower than that of the L-form", "setting": "S. aureus [1]; S. aureus", "value": 16, "unit": "fold"}, {"measurement": "MIC", "setting": "S. aureus [1]; pH 6", "value": 1, "unit": "µg/mL"}, {"measurement": "antimicrobial activity, D-form compared with L-form", "setting": "Staphylococcus aureus", "value": "higher antimicrobial activity"}, {"measurement": "antimicrobial activity (CFU), D-form compared with L-form", "setting": "E. coli [2]", "value": "higher antimicrobial activity"}, {"measurement": "persistence in bacterial culture medium, D-form compared with L-form", "setting": "[3]", "value": "persist longer"}, {"measurement": "inhibition of the antimicrobial effect by S. aureus peptidoglycan", "setting": "S. aureus [4]; 40 μg/ml S. aureus peptidoglycan", "value": "almost inhibited"}, {"measurement": "inhibition of the antimicrobial activity by lipopolysaccharide from E. coli", "setting": "S. aureus [4]", "value": "preferentially inhibited"}, {"measurement": "inhibition of the antimicrobial activity by peptidoglycan from E. coli", "setting": "S. aureus [4]", "value": "weak inhibitory effect"}, {"measurement": "inhibition of the antimicrobial activity by synthetic E. coli lipid A", "setting": "S. aureus [4]", "value": "preferentially inhibited"}, {"measurement": "inhibition of the antimicrobial effect by lipoteichoic acid from S. aureus", "setting": "S. aureus [4]", "value": "inhibited the antimicrobial effect of both D-form and L-form peptides similarly"}, {"measurement": "ethidium bromide influx rate", "setting": "S. aureus [5]", "value": "higher"}, {"measurement": "affinity for S. aureus peptidoglycan, D-form compared with L-form", "setting": "S. aureus peptidoglycan", "value": "higher affinity"}, {"measurement": "MIC", "setting": "E. coli [6]", "value": 8, "unit": "µg/mL"}, {"measurement": "antimicrobial activity (CFU), D-form compared with L-form", "setting": "S. Typhimurium", "value": "higher antimicrobial activity"}, {"measurement": "MIC", "setting": "C. albicans", "value": 32, "unit": "µg/mL"}]}]}
